What was measured:
Assay type in all cases: cell-based, human
IFNγ = IFNγ release by PBL, ELISA; conditions: donor GR467, Cpd II 15 μg/ml, MP 15 μg/ml, Dex 10 μM, FIG. 4; for IFNγ release, cells stimulated with PHA: 2 μg/ml PHA, 96 h; for IFNγ release, unstimulated cells: no PHA
Experimental: After this incubation, PHA was added to give a final concentration of 2 μg/ml, and the cells were incubated for an additional 96 hours at 37° C., 5% CO2. All cultures were performed in triplicate. Cells were then removed by centrifugation at 1000 rpm for 10 minutes, and the culture medium collected.
Release of IL-13 and interferon gamma (IFNγ) into the culture medium was measured by ELISA. To perform the ELISA, matched pairs of antibodies against human IL-13 and IFNγ were purchased from Pierce Biotechnology and Biosource, respectively. ELISA strip well plates were coated with 10 μg/ml of antibody (in phosphate-buffered saline (PBS)) to IL-13 and 4 μg/ml of antibody to IFNγ (in PBS) overnight at room temperature. The plates were then blocked using a 4% BSA solution in PBS for one hour, followed by the addition of 50 μl of experimental culture medium per well in duplicate. The plates were incubated at room temperature for one hour and then washed using 50 mM Tris pH 8.0 with 0.1% Tween 20. Then, solutions of 400 ng/ml biotinylated second antibody to IL-13 and 500 ng/ml biotinylated second antibody to IFNγ were made in blocking buffer, and 100 μl were added per well. The plates were incubated for 1 hour and washed again. A 1:8000 dilution of Strepavidin HRP (Pierce Biotechnology) conjugate was made in blocking buffer, and 100 μl were added to the wells and incubation continued for 30 minutes. A final wash step was performed, after which 100 μl Pierce Biotechnology TMB substrate were added to each well. Color was developed for 30 minutes and stopped by adding 100 μl 0.18 N H2SO4. OD was determined using microplate reader with a 450 nm filter.

IL-8 = IL-8 release by TNFα-stimulated HUVECs, ELISA; conditions: for Mean IL-8: 18 hours, TNFα + water 35572; for IL-8 release stimulated by TNFα (in words): HUVECs, Cpd II 1-30 μg/ml, MP 15 μg/ml, Dex and LY 294002 10 μM
Experimental: Passage 4 HUVECs, human source lot number 8710 (obtained from ATCC), were put into the wells of a 24-well tissue culture plate at 5,000 cells/well in EGM-2 medium (obtained from Cambrex) and cultured for 72 hours at 37° C. and 5% CO2. […] After incubation for 1 hour at 37° C. and 5% CO2, TNFα (obtained from Pierce) was added to give a final concentration of 10 ng/ml, and the cells were incubated for an additional 18 hours at 37° C. and 5% CO2. After this incubation, the supernatants were collected, and the amount of IL-8 in the supernatants determined by ELISA as described in Example 4.

NFκB = experiment: Activated NFκB in VEGF-treated HUVECs, TransAM assay; conditions: for Mean OD 450 nm (NFκB): control 0.070, VEGF only 0.111
Experimental: Passage 5 HUVECs, human source lot number 8750 (obtained from ATCC), were grown to confluence in 25 cm^2 flasks in EGM-2 medium. The following additives were added to the flasks (total volume of 5 ml/flask) in EGM-2 medium containing 2% FCS, GA1000 (gentamycin), heparin and ascorbic acid (all from Cambrex): 1 μg/ml of the compound of formula II (Cpd II); 5 μg/ml Cpd II; 15 μg/ml of Cpd II; 15 μg/ml methylphenidate (MP); or 10 μM LY 294002. The flasks were incubated overnight at 37° C., 5% CO2 After this incubation, vascular endothelial growth factor (VEGF) (obtained from Sigma) was added to give a final concentration 10 ng/ml, and the flasks were incubated for an additional 30 minutes.
Then, the amount of NFκB was determined using a TransAM™ NFκB p65/NFκB p50 Transcription Factor Assay Kit and a Nuclear Extract Kit from Active Motif North America, Carlsbad, Calif., according to the manufacturer's instructions. Briefly, a nuclear extract of the cells was prepared using the Nuclear Extract Kit. Then, the nuclear extract was added to the wells of the 96-well plate of the TransAM™ kit. Oligonucleotide containing an NFκB consensus binding site was immobilized in the wells, and the activated NFκB contained in the nuclear extract was bound to the oligonucleotide. Then, an antibody directed against the NFκB p65 or p50 subunit was added, and the NFκB complex bound to the oligonucleotide was detected. A secondary antibody conjugated to horseradish peroxidase (HRP) was next added to provide a colorimetric readout that was quantified by spectrophotometry (measurement at 450 nm).

STAT5b = experiment: Custom AntibodyArray, TRiPS cells: STAT5b; conditions: 15 μg/ml, 30 minutes
Experimental: (§1) Day 18 TRiPS cells, 1×10^6, were incubated for 30 minutes at 37° C., either with nothing added (“Nil”), with 1 μl CD3/CD28 Dynabeads (Dynal, Oslo, Norway) (“CD3/CD28 beads”) per 100,000 cells, or with CD3/CD28 beads and 15 μg/ml of the compound of formula II (Cpd II). After the incubation, the cells were lysed in Cell-Lytic Mammalian Cell Extraction Reagent (Sigma). After centrifugation to pellet cellular debris, the supernatants (cell extracts) were obtained.
(§2) The cell extracts (supernatants) were then analyzed using a Custom AntibodyArray™ manufactured by Hypromatrix Inc., Worcester, Mass., following the manufacturer's instructions. The Custom AntibodyArray™ is a nylon membrane blotted with antibodies to the proteins listed below. Briefly, the cell extracts were incubated with duplicate Custom AntibodyArray™'s for 2 hours at room temperature with slow shaking, followed by three washes with Tris buffer (150 mM NaCl, 25 mM Tris, 0.05% Tween-20, pH 7.5). HRP-labeled antibodies specific for phosphorylated-tyrosine, phosphorylated-serine and phosphorylated-threonine in Tris buffer were added, and the arrays incubated for 2 hours. After three more washes with Tris buffer, a peroxidase-reactive luminescent substrate was added. The arrays were visualized by exposure to X-ray film. Densitometry of the X-ray films was measured by scanning and computer analysis.

IL-2 = experiment: Custom AntibodyArray, TRiPS cells: IL-2; conditions: 15 μg/ml, 30 minutes
Experimental: as §1, §2

STAT6 = experiment: Custom AntibodyArray, TRiPS cells: STAT6; conditions: 15 μg/ml, 30 minutes
Experimental: as §1, §2

| SMILES | IFNγ release, cells stimulated with PHA (IFNγ) | IFNγ release, unstimulated cells (IFNγ) | Mean IL-8 (IL-8; 10 ng/ml TNFα + 15 μg/ml) [pg/mL] | IL-8 release stimulated by TNFα (in words) (IL-8) | Mean OD 450 nm (NFκB) (NFκB; VEGF 10 ng/ml + 15 μg/ml) | Mean IL-8 (IL-8; 10 ng/ml TNFα + 1 μg/ml) [pg/mL] | Mean IL-8 (IL-8; 10 ng/ml TNFα + 5 μg/ml) [pg/mL] | Mean IL-8 (IL-8; 10 ng/ml TNFα + 10 μg/ml) [pg/mL] | Mean IL-8 (IL-8; 10 ng/ml TNFα + 30 μg/ml) [pg/mL] | Mean OD 450 nm (NFκB) (NFκB; VEGF 10 ng/ml + 1 μg/ml) | Mean OD 450 nm (NFκB) (NFκB; VEGF 10 ng/ml + 5 μg/ml) | amount of activated NFκB (in words) (NFκB; VEGF, 15 μg/ml and 5 μg/ml) | Effect of Cpd II on the protein in CD3/CD28 stimulated TRiPS cells (STAT5b) | Effect of Cpd II on the protein in CD3/CD28 stimulated TRiPS cells (IL-2) | Effect of Cpd II on the protein in CD3/CD28 stimulated TRiPS cells (STAT6) |
| --- | --- | --- | --- | --- | --- | --- | --- | --- | --- | --- | --- | --- | --- | --- | --- |
| COC(=O)C(c1ccccc1)C1CCCCN1 (centres unmarked) [methylphenidate] | increased the release of IFNγ by the PHA-stimulated cells | had some effect on the release of IFNγ by unstimulated cells | 30183 ± 3448.01 | slightly decreased IL-8 release | 0.093 ± 0.011 |  |  |  |  |  |  |  |  |  |  |
| COC(=O)C(c1ccc(-c2ccccc2)cc1)C1CCCCN1 (centres unmarked) [Cpd II] | significantly inhibited IFNγ release | significantly inhibited IFNγ release | 20817 ± 674.63 | decreased IL-8 release stimulated by TNFα in a dose-dependent manner | 0.060 ± 0.008 | 53657 ± 3935.18 | 34482 ± 2127.22 | 22050 ± 727.27 | 4829.8 ± 214.13 | 0.097 ± 0.013 | 0.065 ± 0.010 | reduced the amount of activated NFκB back to basal levels | Activated | Decreased level back to basal levels (Nil control) | Slightly decreased the level |
